Drawing on patent US20140018384A1, “QUINOLINONE DERIVATIVES FOR USE IN THE TREATMENT OF AN AUTOIMMUNE DISEASE AND/OR AN INFLAMMATORY DISEASE” (PRONOXIS AB, priority 2011, published 2014), this text covers fold induction for 28 molecules.

One experiment has as its system HL-60 cells. Put plainly: ROS production (isoluminol/HRP luminescence) in HL-60 cells, Biological Example 1. The class given is cell-based. The conditions noted are these: Homo sapiens, 50 μM compound vs. blank, read-out: Activity A (fold increase of NADPH activity compared to control). The method, then: To cells (HL-60 or PLB-985) in HBSS medium was added compound (25 or 50 μM), isoluminol and Horse Radish Peroxidase, fraction II. Luminescence was measured for 10-30 minutes and the area under the […] curve was divided by that from a control experiment to give the activity expressed as fold change.
Each assay indicated below was performed at a different site, at a different time, by different personnel and/or using different cell lines, concentrations and controls. The cell line, concentration of example compound and control used in respect of each assay were as indicated below. The values obtained from these different setups (each using an otherwise identical assay) are given as Activity A, B, C, D or E in Table 5 below. The values are expressed as fold increase of NADPH activity in the presence of the relevant of compound (as indicated below) compared to the relevant control (as indicated below).
Activity A: HL-60 cells; 50 μM compound vs. blank Activity B: PLB-985 cells; 25 μM compound vs. blank Activity C, D and E: PLB-985 cells; 25 μM compound vs. DMSO

The next experiment concerns PLB-985 cells. Description: ROS production (isoluminol/HRP luminescence) in PLB-985 cells, Biological Example 1. The class given is cell-based. A digest of the protocol:
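Cells in HBSS received compound plus isoluminol and HRP; luminescence followed 10–30 min, AUC divided by control to give fold change in NADPH oxidase activity. HL-60: 50 μM compound vs blank; PLB-985: 25 μM compound vs blank or vs DMSO.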

[1] abbreviates: 25 μM compound vs. DMSO, setup C, read-out: Activity C (fold increase of NADPH activity compared to control).
The mark [2] stands for this setting: 25 μM compound vs. DMSO, setup E, read-out: Activity E (fold increase of NADPH activity compared to control).
Where [3] appears, read: 25 μM compound vs. blank, read-out: Activity B (fold increase of NADPH activity compared to control).
Where [4] appears, read: 25 μM compound vs. DMSO, setup D, read-out: Activity D (fold increase of NADPH activity compared to control).

Read-outs that look alike come from different tables or passages of the source.

With `CCc1ccc(C(=O)c2cn(CC(=O)Nc3ccc(F)cc3)c3cc4c(cc3c2=O)OCO4)cc1` [Example 100, 2-[3-(4-Ethylbenzoyl)-6,7-methylenedioxy-4-oxo-1-quinolinyl]-N-(4-fluorophenyl)acetamide], the fold induction at 50 µM in the experiment on HL-60 cells amounted to 2.9. On the same count and under the same terms, to `Cc1ccc(C(=O)c2cn(CC(=O)Nc3ccccc3C)c3cc4c(cc3c2=O)OCO4)cc1` [Example 101, 2-(6,7-Methylenedioxy-4-oxo-3-p-toluoyl-1-quinolinyl)-N-o-tolylacetamide] belongs 2.1; to `COc1ccc(NC(=O)Cn2cc(C(=O)c3ccc(F)cc3)c(=O)c3cc4c(cc32)OCO4)c(OC)c1` [Example 93, N-(2,4-Dimethoxyphenyl)-2-[3-(4-fluorobenzoyl)-6,7-methylenedioxy-4-oxo-1-quinolinyl]acetamide], 2.9; to `CCOc1ccc(C(=O)c2cn(CC(=O)Nc3ccc(OC)cc3)c3cc4c(cc3c2=O)OCO4)cc1` [Example 94, N-p-Anisyl-2-[3-(4-ethoxybenzoyl)-6,7-methylenedioxy-4-oxo-1-quinolinyl]acetamide], 8.4. On the same count and under the same terms, to `O=C(Cn1cc(C(=O)c2ccc(Cl)cc2)c(=O)c2cc3c(cc21)OCO3)Nc1ccc(F)cc1` [Example 92, 2-[3-(4-Chlorobenzoyl)-6,7-methylenedioxy-4-oxo-1-quinolinyl]-N-(4-fluorophenyl)acetamide] belongs 8.2; to `CCOc1ccc2c(c1)c(=O)c(C(=O)c1ccc(C)cc1)cn2CC(=O)Nc1ccccc1C` [Example 91, 2-(6-Ethoxy-4-oxo-3-p-toluoyl-1-quinolinyl)-N-o-tolylacetamide], 5.3. As to `Cc1ccc(C(=O)c2cn(CC(=O)Nc3ccc(F)c(F)c3)c3cc4c(cc3c2=O)OCO4)cc1` [Example 97, N-(3,4-Difluorophenyl)-2-(6,7-methylenedioxy-4-oxo-3-p-toluoyl-1-quinolinyl)acetamide], the fold induction at 50 µM in the experiment on HL-60 cells amounted to 6.

With `CCOc1ccc(NC(=O)Cn2cc(C(=O)c3ccccc3)c(=O)c3cc4c(cc32)OCO4)cc1` [Example 99, 2-(3-Benzoyl-6,7-methylenedioxy-4-oxo-1-quinolinyl)-N-(4-ethoxyphenyl)acetamide], the fold induction at 50 µM with HL-60 cells was determined as 4.3. On to `COc1ccc(NC(=O)Cn2cc(S(=O)(=O)c3ccc(Cl)cc3)c(=O)c3cc4c(cc32)OCO4)cc1` [Example 45, N-p-Anisyl-2-[3-(4-chlorobenzenesulfonyl)-6,7-methylenedioxy-4-oxo-1-quinolinyl]acetamide], for which the fold induction at 25 µM in the experiment with PLB-985 cells (setting [1]) worked out at 10.7. In the case of `COc1cc(OC)c2c(c1)c(=O)c(C(=O)c1ccc(F)cc1)cn2CC(=O)Nc1ccc(Cl)cc1` [Example 42, N-(4-Chlorophenyl)-2-[6,8-dimethoxy-3-(4-fluorobenzoyl)-4-oxo-1-quinolinyl]acetamide], the fold induction at 25 µM in the experiment on PLB-985 cells (setting [2]) was found to be 2.5. As for `COc1ccc(C(=O)c2cn(CC(=O)Nc3ccc4c(c3)OCO4)c3cc4c(cc3c2=O)OCO4)cc1` [Example 59, 2-(3-p-Anisoyl-6,7-methylenedioxy-4-oxo-1-quinolinyl)-N-(3,4-methylenedioxyphenyl)acetamide], the fold induction at 25 µM came to 13.4 with PLB-985 cells (setting [1]) and 7.6 in the experiment with PLB-985 cells (setting [3]). The like results for `COc1ccc(NC(=O)Cn2cc(C(=O)c3ccc(C)c(C)c3)c(=O)c3cc4c(cc32)OCO4)cc1` [Example 47, N-p-Anisyl-2-[3-(3,4-dimethylbenzoyl)-6,7-methylenedioxy-4-oxo-1-quinolinyl]acetamide] were, in that order, 58.4 and 144. Take `CCc1ccc(C(=O)c2cn(CC(=O)Nc3ccc(OC)cc3)c3cc4c(cc3c2=O)OCO4)cc1` [Example 98, N-p-Anisyl-2-[3-(4-ethylbenzoyl)-6,7-methylenedioxy-4-oxo-1-quinolinyl]acetamide]: the fold induction at 50 µM in the experiment on HL-60 cells was 9. Turning to `Cc1ccc(NC(=O)Cn2cc(C(=O)c3ccc4ccccc4c3)c(=O)c3cc4c(cc32)OCO4)cc1` [Example 2, 2-[6,7-Methylenedioxy-3-(2-naphthoyl)-4-oxo-1-quinolinyl]-N-p-tolylacetamide], the fold induction at 25 µM in the experiment on PLB-985 cells (setting [2]) came out at 10. As to `Cc1ccc(C(=O)c2cn(CC(=O)Nc3ccc4c(c3)OCCO4)c3cc4c(cc3c2=O)OCO4)cc1C` [Example 74, 2-[3-(3,4-Dimethylbenzoyl)-6,7-methylenedioxy-4-oxo-1-quinolinyl]-N-(3,4-ethylenedioxyphenyl)-acetamide], the fold induction at 25 µM with PLB-985 cells (setting [1]) worked out at 20.1; with PLB-985 cells (setting [3]) it was 38. `COc1ccc(NC(=O)Cn2cc(C(=O)c3ccc(Cl)cc3)c(=O)c3cc(OC)c(OC)cc32)cc1` [Example 104, N-p-Anisyl-2-[3-(4-chlorobenzoyl)-6,7-dimethoxy-4-oxo-1-quinolinyl]acetamide]: the fold induction at 25 µM in the experiment with PLB-985 cells (setting [4]) came to 1.4. As for `O=C(Cn1cc(C(=O)c2ccc3ccccc3c2)c(=O)c2cc3c(cc21)OCO3)Nc1ccccc1Cl` [Example 10, N-(2-ChlorophenyI)-2-[6,7-methylenedioxy-3-(2-naphthoyl)-4-oxo-1-quinolinyl]acetamide], in the experiment with PLB-985 cells (setting [2]), the fold induction at 25 µM amounted to 1.7. As for `COc1cccc(NC(=O)Cn2cc(C(=O)c3ccc(Cl)cc3)c(=O)c3cc4c(cc32)OCO4)c1` [Example 69, N-(m-Anisyl)-2-[3-(4-chlorobenzoyl)-6,7-methylenedioxy-4-oxo-1-quinolinyl]acetamide], the values for the fold induction at 25 µM in the experiment on PLB-985 cells (setting [1]) and in the experiment on PLB-985 cells (setting [3]) were 4 and 4.6, respectively. Turning to `COc1ccc(NC(=O)Cn2cc(S(=O)(=O)c3ccccc3)c(=O)c3cc4c(cc32)OCO4)cc1` [Example 85, N-p-Anisyl-2-(3-benzenesulfonyl-6,7-methylenedioxy-4-oxo-1-quinolinyl)acetamide], in the experiment on PLB-985 cells (setting [1]), the fold induction at 25 µM is 12.2. As for `O=C(Cn1cc(C(=O)c2ccc3ccccc3c2)c(=O)c2cc3c(cc21)OCO3)Nc1cccnc1` [Example 12, 2-[6,7-Methylenedioxy-3-(2-naphthoyl)-4-oxo-1-quinolinyl]-N-(3-pyridyl)acetamide], the fold induction at 25 µM with PLB-985 cells (setting [2]) turned out to be 3.2. On to `COc1cc(NC(=O)Cn2cc(C(=O)c3ccc(C)c(C)c3)c(=O)c3cc4c(cc32)OCO4)cc(OC)c1` [Example 73, N-(3,5-Dimethoxyphenyl)-2-[3-(3,4-dimethylbenzoyl)-6,7-methylenedioxy-4-oxo-1-quinolinyl]acetamide], for which the fold induction at 25 µM was found to be 17.1 with PLB-985 cells (setting [1]) and 15.2 in the experiment with PLB-985 cells (setting [3]). Regarding `Cc1ccc(C(=O)c2cn(CC(=O)Nc3ccc(Cl)cc3)c3cc4c(cc3c2=O)OCO4)cc1C` [Example 50, N-(4-Chlorophenyl)-2-[3-(3,4-dimethylbenzoyl)-6,7-methylenedioxy-4-oxo-1-quinolinyl]acetamide], the fold induction at 25 µM in the experiment on PLB-985 cells (setting [1]) worked out at 62.8; in the experiment on PLB-985 cells (setting [3]), 163.

With `O=C(Cn1cc(C(=O)c2ccccc2)c(=O)c2cc3c(cc21)OCO3)Nc1ccc2c(c1)OCO2` [Example 64, 2-(3-Benzoyl-6,7-methylenedioxy-4-oxo-1-quinolinyl)-N-(3,4-methylenedioxyphenyl)acetamide], the fold induction at 25 µM with PLB-985 cells (setting [1]) was found to be 27.9; in the experiment with PLB-985 cells (setting [3]), 41.1. `COc1cc2c(cc1C)c(=O)c(C(=O)c1ccc3ccccc3c1)cn2CC(=O)Nc1ccc(Cl)cc1` [Example 20, N-(4-Chlorophenyl)-2-[7-methoxy-6-methyl-3-(2-naphthoyl)-4-oxo-1-quinolinyl]acetamide]: the fold induction at 25 µM in the experiment with PLB-985 cells (setting [4]) was determined as 6.3.

For `Cc1ccc(C(=O)c2cn(CC(=O)Nc3ccc(N(C)C)cc3)c3cc4c(cc3c2=O)OCO4)cc1C` [Example 35], in the experiment with PLB-985 cells (setting [1]), the fold induction at 25 µM was found to be 6.3.

Consider `O=C(Cn1cc(C(=O)c2ccc(F)cc2)c(=O)c2cc3c(cc21)OCO3)Nc1ccc2c(c1)OCCO2` [Example 81, N-(3,4-Ethylenedioxyphenyl)-2-[3-(4-fluorobenzoyl)-6,7-methylenedioxy-4-oxo-1-quinolinyl]acetamide], for which the fold induction at 25 µM with PLB-985 cells (setting [1]) was determined as 22.6. Turning to `CCOc1ccc2c(c1)c(=O)c(C(=O)c1ccc(F)cc1)cn2CC(=O)Nc1ccc(OC)cc1` [Example 102, N-p-Anisyl-2-[6-ethoxy-3-(4-fluorobenzoyl)-4-oxo-1-quinolinyl]acetamide], the fold induction at 25 µM in the experiment with PLB-985 cells (setting [4]) is 2.1. For `O=C(Cn1cc(S(=O)(=O)c2ccc(F)cc2)c(=O)c2cc3c(cc21)OCO3)Nc1ccccc1` [Example 96, 2-[3-(4-Fluorobenzenesulfonyl)-6,7-methylenedioxy-4-oxo-1-quinolinyl]-N-phenylacetamide], the fold induction at 50 µM with HL-60 cells came out at 2.3.
